US20250382549A1, “MULTIFUNCTIONAL N-OXIDE HYDROTROPES, CLEANING FORMULATIONS CONTAINING THEM AND USE THEREOF” (NOURYON CHEMICALS INTERNATIONAL B.V., priority 2022, published 2025)

Assay: Degreasing effect on a soiled white painted metal plate (non-mechanical cleaning)
Settings: 1:40 dilution in water, poured over painted metal plate soiled with train engine grease, rinsed with tap water
Description: The degreasing effect of the test formulations was assessed on a white painted metal plate soiled uniformly with a tough-to-clean greasy soil collected from a train engine. The cleaning formulation (1:40 dilution in water) was applied simply by pouring it over the surface (non-mechanical cleaning). After a short time interval, the whole plate was rinsed with tap water and cleaning performance was assessed quantitatively. The results are tabulated below and depicted in FIG. 1A (for the respective cleaning formulations A, B, and C containing no NaOH) and FIG. 1B. (for the respective cleaning formulations D, E, and F containing 2% NaOH).

C12/14 alkyl methylamine ethoxylate N-Oxide
Cleaning Performance: performs as well as the comparison hydrotrope
